Test results published in patent US5691335A, “Imidazolidine derivative and use thereof” (Suntory Limited, priority 1994, dated 1997).
Like-named read-outs stand apart in the source and are kept apart here.

Legend:
Human cardiac chymase = target: T1, Human cardiac chymase (Homo sapiens, UniProt P23946); experiment: Inhibitory activity against chymase (Ang I to Ang II conversion, HPLC); type: biochemical
T1 construct: Human cardiac chymase was purified according to the process of Urata et al; from tissue; host or cells: human heart (cardiac)
T1 sequence (P23946 22-247): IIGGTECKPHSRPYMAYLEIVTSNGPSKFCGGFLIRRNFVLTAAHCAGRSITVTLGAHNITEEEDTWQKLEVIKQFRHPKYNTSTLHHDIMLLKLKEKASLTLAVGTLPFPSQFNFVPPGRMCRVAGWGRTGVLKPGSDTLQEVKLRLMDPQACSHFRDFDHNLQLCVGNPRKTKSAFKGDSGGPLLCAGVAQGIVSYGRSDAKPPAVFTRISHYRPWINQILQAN
Method: Human cardiac chymase was purified according to the process of Urata et al. (see the literature described above), and the inhibitory activities of the hydantoin compounds according to the present invention against the chymase were determined in the following manner. Namely, 10 μl of the purified chymase and 5 μl of a solution of a sample to be tested in dimethyl sulfoxide (hereinafter abbreviated as "DMSO") were added to 10 μl of a 20 mM Tris-hydrochloric acid buffer (pH 7.5) containing 2M KCl, and the resultant mixture was preincubated at 37° C. for 10 minutes and then added with 25 μl of a 1 mM solution of Ang I, followed by incubation at 37° C. for 30 minutes. Then, 50 μl of 30% acetic acid were added to stop the enzyme reaction. On the other hand, 5 μl of DMSO were added in place of the solution of the test sample to similarly conduct a reaction as a blank test.
(§1) After completion of the reaction, each liquid reaction mixture was subjected to high performance liquid chromatography on Develosil ODS-5 (product of Nomura Kagaku, 4.6 mm across×150 mm long) to develop it at a linear concentration gradient that the concentration of acetonitrile in 0.05% trifluoroacetic acid (hereinafter abbreviated as "TFA") is increased from 0% to 60% in 10 minutes at a flow rate of 2.0 ml/min. Monitoring was performed by the absorbance measurements at 210 nm. Peaks were identified by comparison with standard solutions of Ang I and Ang II. The areas of the peaks were determined by an integrator to quantitate Ang I and Ang II, thereby calculating chymase activity. The inhibitory activity against chymase was determined by calculating an inhibition rate, median inhibitory concentration (IC50) on the basis of the value in the blank test.

cathepsin G = target: T2, cathepsin G (Homo sapiens, UniProt P08311); experiment: Inhibitory activity against cathepsin G (Ang I to Ang II conversion, HPLC); type: biochemical
T2 construct: cathepsin G (product of Calbiochem Co.) derived from human neutrophil; purchased Calbiochem Co; host or cells: human neutrophil
T2 sequence (P08311 21-244 limits assumed): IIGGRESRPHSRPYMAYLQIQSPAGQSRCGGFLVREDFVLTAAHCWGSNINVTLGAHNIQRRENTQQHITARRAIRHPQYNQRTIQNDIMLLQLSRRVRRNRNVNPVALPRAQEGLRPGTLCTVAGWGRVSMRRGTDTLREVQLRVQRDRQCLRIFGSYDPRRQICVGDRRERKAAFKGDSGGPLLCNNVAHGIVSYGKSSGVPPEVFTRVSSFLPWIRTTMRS
Method: as §1
To a 20 mM Tris-hydrochloric acid buffer (pH 7.5) containing 2M KCl, were added 20 μl of a solution with cathepsin G (product of Calbiochem Co.) derived from human neutrophil dissolved at a concentration of 2 μg/ml in the same buffer, and 5 μl of a DMSO solution of a sample to be tested, and the resultant mixture was preincubated at 37° C. for 10 minutes and then added with 25 μl of a 1 mM solution of Ang I, followed by incubation at 37° C. for 30 minutes. Then, 50 μl of 30% acetic acid were added to stop the enzyme reaction. On the other hand, 5 μl of DMSO were added in place of the solution of the test sample to similarly conduct a reaction as a blank test. […] The inhibitory activity against cathepsin G was determined by calculating an inhibition rate, median inhibitory concentration (IC50) on the basis of the value in the blank test.

[1] = target: T3, bovine pancreas α-chymotrypsin (Bos taurus, UniProt P00766); experiment: Inhibitory activity against chymotrypsin (Ang I conversion, HPLC); type: biochemical
T3 construct: bovine pancreas α-chymotrypsin (product of Sigma Chemical Co., TypeII); purchased Sigma Chemical Co. TypeII; host or cells: bovine pancreas
Method: as §1
To 12 μl of a 20 mM Tris-hydrochloric acid buffer (pH 7.5) containing 2M KCl, were added 8 μl of a solution with bovine pancreas α-chymotrypsin (product of Sigma Chemical Co., TypeII) dissolved at a concentration of 8 μg/ml in a 20 mM aqueous solution of CaCl2 containing 1 mM HCl, and 5 μl of a DMSO solution of a sample to be tested, and the resultant mixture was preincubated at 37° C. for 10 minutes and then added with 25 μl of a 1 mM solution of Ang I, followed by incubation at 37° C. for 15 minutes. Then, 50 μl of 30% acetic acid were added to stop the enzyme reaction. On the other hand, 5 μl of DMSO were added in place of the solution of the test sample to similarly conduct a reaction as a blank test. After completion of the reaction, each liquid reaction mixture was treated by high performance liquid chromatography in the same manner as in Test Example 1 to quantitate Ang I and Ang II, thereby calculating chymotripsin activity. The inhibitory activity against chymotrypsin was determined by calculating an inhibition rate, median inhibitory concentration (IC50) on the basis of the value in the blank test.

in vivo = conditions: mouse, po
chymase = conditions: literature, Okunishi et al.; cited from earlier work
[2] = cited from earlier work
[3] = system: vascular restenosis after the operation of PTCA; conditions: random multifacility clinical study, Circulation 1992; cited from earlier work
[4] = 37° C., pH 7.5, Ang I substrate, read-out: Inhibitory activities against enzymes (IC50), Chymase
[5] = human neutrophil cathepsin G, 37° C., pH 7.5, Ang I substrate, read-out: Inhibitory activities against enzymes (IC50), Cathepsin
[6] = bovine pancreas, 37° C., pH 7.5, Ang I substrate, read-out: Inhibitory activities against enzymes (IC50), Chymotrypsin

Compound | IC50 (Human cardiac chymase; [4]) | IC50 (cathepsin G; [5]) | IC50 [1, 6] | further results
O=C1CN(c2ccc(Cl)cc2)C(=O)N1S(=O)(=O)c1ccc(Cl)cc1 [Compound 1, 3-(4-chlorobenzenesulfonyl)-1-(4-chlorophenyl)imidazolidin-2,4-dione] | 0.3 µM | 1.5 µM | 0.5 µM | LD50 at 24 h (in vivo): ≥ 1000 mg/kg; selectivity ratio at 24 h (in vivo): ≥ 50
Cc1ccccc1S(=O)(=O)N1C(=O)CN(c2ccccc2)C1=O [Compound 2, 1-phenyl-3-(2-toluenesulfonyl)-imidazolidin-2,4-dione] | – | – | – | LD50 at 24 h (in vivo): ≥ 1000 mg/kg; selectivity ratio at 24 h (in vivo): ≥ 50
Cc1ccc(S(=O)(=O)N2C(=O)CN(c3ccccc3)C2=O)cc1 [Compound 5, 1-phenyl-3-(4-toluenesulfonyl)-imidazolidin-2,4-dione] | – | 4.5 µM | 7 µM | –
O=C1CN(c2ccccc2)C(=O)N1C(=O)c1ccccc1Cl [Compound 10, 3-(2-chlorobenzoyl)-1-phenyl-imidazolidin-2,4-dione] | 3.7 µM | 0.96 µM | 3.5 µM | –
O=C1CN(c2ccccc2)C(=O)N1C(=O)c1ccc(-c2ccccc2)cc1 [Compound 15, 3-(4-phenylbenzoyl)-1-phenyl-imidazolidin-2,4-dione] | 14 µM | 3.2 µM | 6.9 µM | –
COc1cccc(S(=O)(=O)N2C(=O)CN(c3ccccc3)C2=O)c1 [Compound 20, 1-phenyl-3-(3-methoxybenzenesulfonyl)-imidazolidin-2,4-dione] | – | 8 µM | 3.7 µM | –
O=C1CN(c2ccccc2)C(=O)N1S(=O)(=O)c1cccc(Oc2ccccc2)c1 [Compound 25, 3-(3-phenoxybenzenesulfonyl)-1-phenyl-imidazolidin-2,4-dione] | – | 3.3 µM | 1.4 µM | –
O=C1CN(c2ccc(Oc3ccccc3)cc2)C(=O)N1S(=O)(=O)c1ccc(Cl)cc1 [Compound 30, 3-(4-chlorobenzenesulfonyl)-1-(4-phenoxyphenyl)-imidazolidin-2,4-dione] | – | 4.8 µM | 39 µM | –
COC(=O)c1cccc(S(=O)(=O)N2C(=O)CN(c3ccccc3)C2=O)c1 [Compound 35, 3-(3-methoxycarbonylbenzenesulfonyl)1-phenyl-imidazolidin-2,4-dione] | – | – | 1.8 µM | –
O=C(O)COc1ccc(S(=O)(=O)N2C(=O)CN(c3ccccc3)C2=O)cc1 [Compound 40, 3-(4-carboxymethyloxybenzenesulfonyl)-1-phenyl-imidazolidin-2,4-dione] | 10 µM | 7 µM | 34 µM | –
C=CCOC(=O)Cc1cccc(S(=O)(=O)N2C(=O)CN(c3ccccc3)C2=O)c1 [Compound 45, 3-(3-allyloxycarbonylmethylbenzenesulfonyl)-1-phenyl-imidazolidin-2,4-dione] | 0.45 µM | 4.5 µM | 3.5 µM | –
CN1CCN(C(=O)Cc2ccc(S(=O)(=O)N3C(=O)CN(c4ccccc4)C3=O)cc2)CC1 [Compound 50, 3-(4-N-methylpiperazylcarbonyl-methylbenzenesulfonyl)-1-phenyl-imidazolidin-2,4-dione] | – | – | – | IC50 (Human cardiac chymase): 0.85 µM; IC50 (cathepsin G): 11 µM; IC50 [1]: 5.2 µM
CC(C)(C)OC(=O)c1cccc(N2CC(=O)N(S(=O)(=O)c3ccc(Cl)cc3)C2=O)c1 [Compound 55] | 15 µM | 9.8 µM | 70 µM | –
Cc1ccc(N2CC(=O)N(S(=O)(=O)c3ccc(C)c(C)c3)C2=O)cc1C [Compound 60] | 0.06 µM | 1.7 µM | – | inhibition at 100 µM [1]: 33.6%
C=CCOC(=O)c1ccc(S(=O)(=O)N2C(=O)CN(c3ccc(C)c(C)c3)C2=O)cc1 [Compound 65, 3-(4-allyloxycarbonylbenzenesulfonyl)-1-(3,4-dimethylphenyl)-imidazolidin-2,4-dione] | 0.027 µM | 1.9 µM | 8.5 µM | –
O=C1CN(c2ccccc2)C(=O)N1S(=O)(=O)c1cccc2ccccc12 [Compound 70, 3-(1-naphthysulfonyl)-1-(phenyl)-imidazolidin-2,4-dione] | 0.55 µM | 1.8 µM | 1.6 µM | –
O=C1CN(c2ccc(Cl)c(Cl)c2)C(=O)N1S(=O)(=O)c1ccc2ccccc2c1 [Compound 75, 1-(3,4-dichlorophenyl)-3-(2-naphthylsulfonyl)imidazolidin-2,4-dione] | 0.047 µM | 0.52 µM | 2.4 µM | –
O=C1CN(c2cnc3ccccc3c2)C(=O)N1S(=O)(=O)c1ccc(Cl)cc1 [Compound 80, 3-(4-chlorobenzenesulfonyl)-1-(3-quinolyl)-imidazolidin-2,4-dione] | 0.17 µM | 19 µM | 90 µM | –
CC(C)C[C@H](NC(=O)[C@@H](NC(=O)N[C@@H](Cc1ccccc1)C(=O)O)[C@@H]1CCN=C(N)N1)C(=O)N[C@H](C=O)Cc1ccccc1 [chymostatin] | – | – | – | inhibition of the enzymatic activity of chymase, in words (chymase): inhibited by chymostatin; decomposition of peptide linkage in vivo [2]: easily decomposed in vivo
CCOC(=O)[C@H](CCc1ccccc1)N[C@H]1CCCN2CCC[C@@H](C(=O)O)N2C1=O [cilazapril] | – | – | – | prophylactic effect on vascular restenosis after PTCA versus placebo [3]: no statistically significant difference
